Assay results taken from patent EP0369079A1, “Pharmaceutical compositions with anti-cancer activity and method for the treatment of cancer” (priority 1988, dated 1990).
Where a name gives a salt, the structure may show the parent alone. Read-outs that look alike come from different tables or passages of the source.

How the values were obtained:
[1] = L-ascorbic acid in combination with other aromatic aldehydes or derivatives (synergy check); format: cell-based; details: used in combination with L-ascorbic acid
NHIK 3025 cells [2] = test: Rate of protein synthesis ([3H]valine incorporation related to [14C] protein label); format: cell-based, Human; details: Table 6, control 4.5
Experimental: Human cells of the established line NHIK 3025, originating from a cervical carcinoma in situ (Nordbye, K., and Oftebro, R. Exp. Cell Res., 58:458, l969), Oftebro, R., and Nordbye, K., Exp. Cell Res., 58:459-460, 1969) were cultivated in Medium E2a (Puck, T.T. et al., J. Exp. Med., 106: 145-165, 1957) supplemented with 20% human and 10% horse serum (Grand Island Biological Co.). The cells are grown as monolayers in tissue culture flasks. […] The cells were kept in continuous exponential growth by frequent reculturing, i.e. every second and third day.
The rate of protein synthesis was calculated as described in Rønning, ø. W. et al., J. Cell Physiol., 107: 47-57, 1981. Briefly, cellular protein was labelled to saturation during a 2-day preincubation with (¹⁴C)valine of constant specific radioactivity (0.5 Ci/mol) prior to the experiment. This was achieved by using a high concentration of valine so that the dilution of (¹⁴C) valine by intracellular valine and by proteolytically generated valine will be negligible (Rønning, ø. W., et al. Exp. Cell Res. 123:63-72, 1979), thus keeping the specific radioactivity at a constant level. The rate of protein synthesis was calculated from the incorporation of (³H) valine of constant specific activity. The incorporation measurements were related to the total of (¹⁴C) radioacitivty in protein at the beginning of the respective measurement periods and expressed as the percentage per hour (Rønning, ø. W. et al, J. Cell, Physiol. 107:47-57, 1981).
From earlier studies, it is known that determination of protein synthesis inhibition is a useful measure of anti-cancer activity. In the present study we have tested the protein synthesis inhibition as induced by both BASS and Asc alone, and by the two active agents in simultaneous combination. The experiment also included samples treated similarly, but where BASS-d₁ was used instead of BASS.

NHIK 3025 cells [3] = test: Cell survival (colony formation) after drug treatment; format: cell-based, Human; details: for Surviving fraction: 1440 min
Experimental: The cells are grown as monolayers in tissue culture flasks. […] The cells were kept in continuous exponential growth by frequent reculturing, i.e. every second and third day.
For measurment of cell survival, appropriate numbers of cells were seeded in plastic Petri dishes (⌀ = 5 cm). The number of cells seeded into each dish was adjusted such that the number of surviving cells would be approximately 150 per dish. While exponentially growing (asynchronous) cells were trypsinized before seeding, synchronized cells were seeded immediately after selection. […] After the desired time of treatment, the drug-containing medium was removed, and fresh medium was added. The dishes were rinsed once with the same medium as was to be added on addition or removal of drug. After 10 to 12 days at 37°C in a CO₂ incubator, the cells were fixed in ethanol and stained with methylene blue before the colonies were counted.
The cytotoxic effect of BASS and of ascorbic acid (Asc) used either alone or in simultaneous combination was measured on asynchronous, exponentially growing NHIK 3025 cells.

[4] = 1.0 mM BASS or BASS-d1 alone (0 mM Asc), per cent of the total cellular protein per hour
[5] = 3.2 mM BASS or BASS-d1 alone (0 mM Asc)
[6] = Homo sapiens, NHIK3025, 24 h, Table 4, 24 hours, 1.0 mM BASS or BASS-d1 alone (0 mM Asc), read-out: Surviving fraction

For `OC1O[C@@H]2COC(c3ccccc3)O[C@H]2[C@H](O)[C@H]1O` (stereo partly drawn) [4,6-O-benzylidene glucose], the synergistic effects [1] was “without observing any synergistic effects”.
For `O=C1O[C@H]([C@@H](O)CO)C(O)=C1O` [Asc, L-ascorbic acid, reference compound], the “rate of protein synthesis” value (NHIK 3025 cells [2]; 1.0 mM Asc alone) was 2.96±0.04 %/h, the “rate of protein synthesis” value (NHIK 3025 cells [2]; 3.2 mM Asc alone) was 1.5±0.2 %/h and the viability at 1600 µM (NHIK 3025 cells [3]; Homo sapiens, NHIK3025, 4 h, Table 3, 4 hours, 1.6 mM Asc alone, read-out: Surviving fraction) was 91 ± 1%. It also gave a viability at 3200 µM (NHIK 3025 cells [3]; Homo sapiens, NHIK3025, 4 h, Table 3, 4 hours, 3.2 mM Asc alone, read-out: Surviving fraction) of 27 ± 3%, a viability at 800 µM (NHIK 3025 cells [3]; Homo sapiens, NHIK3025, 24 h, Table 1, 24 hours, 0.8 mM Asc alone (0 mM BASS), read-out: Surviving fraction) of 91 ± 9% and a viability at 1200 µM (NHIK 3025 cells [3]; Homo sapiens, NHIK3025, 24 h, Table 1, 24 hours, 1.2 mM Asc alone (0 mM BASS), read-out: Surviving fraction) of 80%. The viability at 1600 µM (NHIK 3025 cells [3]; Homo sapiens, NHIK3025, 24 h, Table 1, 24 hours, 1.6 mM Asc alone (0 mM BASS), read-out: Surviving fraction) was 61 ± 4%, the viability at 2400 µM (NHIK 3025 cells [3]; Homo sapiens, NHIK3025, 24 h, Table 1, 24 hours, 2.4 mM Asc alone (0 mM BASS), read-out: Surviving fraction) was 40 ± 3% and the viability at 3200 µM (NHIK 3025 cells [3]; Homo sapiens, NHIK3025, 24 h, Table 1, 24 hours, 3.2 mM Asc alone (0 mM BASS), read-out: Surviving fraction) was 11 ± 0.8%. The viability at 800 µM (NHIK 3025 cells [3]; Homo sapiens, NHIK3025, Table 2 (further experiment, similar to Table 1), 0.8 mM Asc alone, read-out: Surviving fraction) was 95 ± 5%, the viability at 1200 µM (NHIK 3025 cells [3]; Homo sapiens, NHIK3025, Table 2 (further experiment, similar to Table 1), 1.2 mM Asc alone, read-out: Surviving fraction) was 69 ± 2% and the viability at 1600 µM (NHIK 3025 cells [3]; Homo sapiens, NHIK3025, Table 2 (further experiment, similar to Table 1), 1.6 mM Asc alone, read-out: Surviving fraction) was 54 ± 2%. For the same molecule, the viability at 2400 µM (NHIK 3025 cells [3]; Homo sapiens, NHIK3025, Table 2 (further experiment, similar to Table 1), 2.4 mM Asc alone, read-out: Surviving fraction) was 29 ± 1%, the viability at 3200 µM (NHIK 3025 cells [3]; Homo sapiens, NHIK3025, Table 2 (further experiment, similar to Table 1), 3.2 mM Asc alone, read-out: Surviving fraction) was 8.7 ± 1% and the Surviving fraction (NHIK 3025 cells [3]; Table 1, 24 hours, 1.2 mM Asc alone (0 mM BASS), 1200 µM) was 0.80±0.09.
In the case of `O=C1O[C@H]([C@@H]2COC(c3ccccc3)O2)C(O)=C1O` (stereo partly drawn) [BASS, sodium salt of 5,6-O-benzylidene-L-ascorbic acid], the “rate of protein synthesis” value (NHIK 3025 cells [2]; [4]) is reported as 3.06±0.02 %/h, the “rate of protein synthesis” value (NHIK 3025 cells [2]; [5]) is reported as 1.71±0.05 %/h and the viability at 1600 µM (NHIK 3025 cells [3]; Homo sapiens, NHIK3025, 4 h, Table 3, 4 hours, 1.6 mM BASS alone, read-out: Surviving fraction) is reported as 80 ± 5%. For the same molecule, the viability at 3200 µM (NHIK 3025 cells [3]; Homo sapiens, NHIK3025, 4 h, Table 3, 4 hours, 3.2 mM BASS alone, read-out: Surviving fraction) was 36 ± 3%, the viability at 1000 µM (NHIK 3025 cells [3]; Homo sapiens, NHIK3025, 24 h, Table 1, 24 hours, 1.0 mM BASS alone (0 mM Asc), read-out: Surviving fraction) was 76% and the viability at 1600 µM (NHIK 3025 cells [3]; Homo sapiens, NHIK3025, 24 h, Table 1, 24 hours, 1.6 mM BASS alone (0 mM Asc), read-out: Surviving fraction) was 52 ± 2%. The viability at 3200 µM (NHIK 3025 cells [3]; Homo sapiens, NHIK3025, 24 h, Table 1, 24 hours, 3.2 mM BASS alone (0 mM Asc), read-out: Surviving fraction) was 1.1 ± 0.1%, the viability at 1000 µM (NHIK 3025 cells [3]; [6]) was 62 ± 5% and the viability at 1600 µM (NHIK 3025 cells [3]; Homo sapiens, NHIK3025, 24 h, read-out: Surviving fraction) was 24 ± 3%. The viability at 500 µM (NHIK 3025 cells [3]; Homo sapiens, NHIK3025, Table 2 (further experiment, similar to Table 1), 0.5 mM BASS alone, read-out: Surviving fraction) was 91 ± 7%, the viability at 1000 µM (NHIK 3025 cells [3]; Homo sapiens, NHIK3025, Table 2 (further experiment, similar to Table 1), 1.0 mM BASS alone, read-out: Surviving fraction) was 63 ± 8% and the viability at 1600 µM (NHIK 3025 cells [3]; Homo sapiens, NHIK3025, Table 2 (further experiment, similar to Table 1), 1.6 mM BASS alone, read-out: Surviving fraction) was 44 ± 3%. The viability at 3200 µM (NHIK 3025 cells [3]; Homo sapiens, NHIK3025, Table 2 (further experiment, similar to Table 1), 3.2 mM BASS alone, read-out: Surviving fraction) was 3.9 ± 0.4% and the Surviving fraction (NHIK 3025 cells [3]; Table 1, 24 hours, 1.0 mM BASS alone (0 mM Asc), 1000 µM) was 0.76±0.02.
For `[2H]C1(c2ccccc2)OC[C@@H]([C@H]2OC(=O)C(O)=C2O)O1` (stereo partly drawn) [BASS-d₁, sodium salt of 5,6-O-benzylidene-L-ascorbic acid deuterated at the 1-position of the aldehyde group of the benzylidene moiety], the “rate of protein synthesis” value (NHIK 3025 cells [2]; [4]) was 3.03±0.16 %/h, the “rate of protein synthesis” value (NHIK 3025 cells [2]; [5]) was 2.00±0.03 %/h and the viability at 1000 µM (NHIK 3025 cells [3]; [6]) was 55 ± 5%.
